The source of these data is ChEMBL document CHEMBL1201862, “PubChem BioAssay data set” (2004).

Test [1] can be described thus: Fluorescence-based biochemical high throughput screening dose response assay to identify inhibitors of Crimean-Congo Hemorrhagic Fever (CCHF) viral ovarian tumor domain protease (vOTU): Pep-AMC substrate.
Test [2] is described as follows: inhibitors of firefly luciferase expression or activity, dose response, H4 neuroglioma cells, luminescence (AID 1990). The test is classed as functional, cell-based.
Test [3] concerns the target T1, Mitochondrial peptide methionine sulfoxide reductase (Bos taurus, UniProt P54149).
T1 sequence (P54149 whole entry): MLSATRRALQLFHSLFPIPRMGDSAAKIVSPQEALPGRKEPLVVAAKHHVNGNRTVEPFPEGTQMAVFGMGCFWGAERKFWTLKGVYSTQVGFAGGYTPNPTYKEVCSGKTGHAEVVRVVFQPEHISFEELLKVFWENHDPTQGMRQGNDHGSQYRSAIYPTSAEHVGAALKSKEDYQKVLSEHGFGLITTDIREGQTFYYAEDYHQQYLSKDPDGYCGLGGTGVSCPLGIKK
As to the kind of experiment: Absorbance-based biochemical high throughput dose response assay for activators of Methionine sulfoxide reductase A (MsrA). Type of test: functional.

Test [4] addresses T2, Calpain-2 catalytic subunit (Sus scrofa, UniProt P43367).
T2 sequence (P43367 whole entry): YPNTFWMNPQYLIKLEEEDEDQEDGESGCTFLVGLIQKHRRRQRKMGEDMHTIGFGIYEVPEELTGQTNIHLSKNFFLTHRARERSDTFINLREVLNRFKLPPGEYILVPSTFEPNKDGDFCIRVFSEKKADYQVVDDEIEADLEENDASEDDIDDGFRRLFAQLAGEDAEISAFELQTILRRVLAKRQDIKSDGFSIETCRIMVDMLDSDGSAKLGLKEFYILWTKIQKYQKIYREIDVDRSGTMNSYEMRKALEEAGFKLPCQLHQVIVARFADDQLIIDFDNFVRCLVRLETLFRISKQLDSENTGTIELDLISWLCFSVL
Description: pig calpain II inhibitor potency, dose response, biochemical, fluorogenic peptide substrate (AID 1420). The test is classed as functional.

The target in another test is T3, Protein Tat (Human immunodeficiency virus type 1 group M subtype B (isolate HXB2)(HIV-1), UniProt P04608).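 Also: tat binding to TAR RNA read out by fluorescence polarization.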
T3 sequence (P04608 whole entry): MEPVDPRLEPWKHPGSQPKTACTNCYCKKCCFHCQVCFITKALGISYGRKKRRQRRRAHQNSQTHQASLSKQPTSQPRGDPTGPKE
Type of test: functional.

In test [5] the target is T4, Fatty acid synthase (Homo sapiens, UniProt P49327). Description: FAS thioesterase domain inhibitors, dose response, biochemical, endpoint fluorescence intensity, uHTS hits (AID 624327).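 Also: fluorescence from hydrolysis of an O-methyl fluorescein acyl ester substrate by the enzyme.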 The test is classed as functional.
T4 sequence (P49327 whole entry, the tested form may be a part): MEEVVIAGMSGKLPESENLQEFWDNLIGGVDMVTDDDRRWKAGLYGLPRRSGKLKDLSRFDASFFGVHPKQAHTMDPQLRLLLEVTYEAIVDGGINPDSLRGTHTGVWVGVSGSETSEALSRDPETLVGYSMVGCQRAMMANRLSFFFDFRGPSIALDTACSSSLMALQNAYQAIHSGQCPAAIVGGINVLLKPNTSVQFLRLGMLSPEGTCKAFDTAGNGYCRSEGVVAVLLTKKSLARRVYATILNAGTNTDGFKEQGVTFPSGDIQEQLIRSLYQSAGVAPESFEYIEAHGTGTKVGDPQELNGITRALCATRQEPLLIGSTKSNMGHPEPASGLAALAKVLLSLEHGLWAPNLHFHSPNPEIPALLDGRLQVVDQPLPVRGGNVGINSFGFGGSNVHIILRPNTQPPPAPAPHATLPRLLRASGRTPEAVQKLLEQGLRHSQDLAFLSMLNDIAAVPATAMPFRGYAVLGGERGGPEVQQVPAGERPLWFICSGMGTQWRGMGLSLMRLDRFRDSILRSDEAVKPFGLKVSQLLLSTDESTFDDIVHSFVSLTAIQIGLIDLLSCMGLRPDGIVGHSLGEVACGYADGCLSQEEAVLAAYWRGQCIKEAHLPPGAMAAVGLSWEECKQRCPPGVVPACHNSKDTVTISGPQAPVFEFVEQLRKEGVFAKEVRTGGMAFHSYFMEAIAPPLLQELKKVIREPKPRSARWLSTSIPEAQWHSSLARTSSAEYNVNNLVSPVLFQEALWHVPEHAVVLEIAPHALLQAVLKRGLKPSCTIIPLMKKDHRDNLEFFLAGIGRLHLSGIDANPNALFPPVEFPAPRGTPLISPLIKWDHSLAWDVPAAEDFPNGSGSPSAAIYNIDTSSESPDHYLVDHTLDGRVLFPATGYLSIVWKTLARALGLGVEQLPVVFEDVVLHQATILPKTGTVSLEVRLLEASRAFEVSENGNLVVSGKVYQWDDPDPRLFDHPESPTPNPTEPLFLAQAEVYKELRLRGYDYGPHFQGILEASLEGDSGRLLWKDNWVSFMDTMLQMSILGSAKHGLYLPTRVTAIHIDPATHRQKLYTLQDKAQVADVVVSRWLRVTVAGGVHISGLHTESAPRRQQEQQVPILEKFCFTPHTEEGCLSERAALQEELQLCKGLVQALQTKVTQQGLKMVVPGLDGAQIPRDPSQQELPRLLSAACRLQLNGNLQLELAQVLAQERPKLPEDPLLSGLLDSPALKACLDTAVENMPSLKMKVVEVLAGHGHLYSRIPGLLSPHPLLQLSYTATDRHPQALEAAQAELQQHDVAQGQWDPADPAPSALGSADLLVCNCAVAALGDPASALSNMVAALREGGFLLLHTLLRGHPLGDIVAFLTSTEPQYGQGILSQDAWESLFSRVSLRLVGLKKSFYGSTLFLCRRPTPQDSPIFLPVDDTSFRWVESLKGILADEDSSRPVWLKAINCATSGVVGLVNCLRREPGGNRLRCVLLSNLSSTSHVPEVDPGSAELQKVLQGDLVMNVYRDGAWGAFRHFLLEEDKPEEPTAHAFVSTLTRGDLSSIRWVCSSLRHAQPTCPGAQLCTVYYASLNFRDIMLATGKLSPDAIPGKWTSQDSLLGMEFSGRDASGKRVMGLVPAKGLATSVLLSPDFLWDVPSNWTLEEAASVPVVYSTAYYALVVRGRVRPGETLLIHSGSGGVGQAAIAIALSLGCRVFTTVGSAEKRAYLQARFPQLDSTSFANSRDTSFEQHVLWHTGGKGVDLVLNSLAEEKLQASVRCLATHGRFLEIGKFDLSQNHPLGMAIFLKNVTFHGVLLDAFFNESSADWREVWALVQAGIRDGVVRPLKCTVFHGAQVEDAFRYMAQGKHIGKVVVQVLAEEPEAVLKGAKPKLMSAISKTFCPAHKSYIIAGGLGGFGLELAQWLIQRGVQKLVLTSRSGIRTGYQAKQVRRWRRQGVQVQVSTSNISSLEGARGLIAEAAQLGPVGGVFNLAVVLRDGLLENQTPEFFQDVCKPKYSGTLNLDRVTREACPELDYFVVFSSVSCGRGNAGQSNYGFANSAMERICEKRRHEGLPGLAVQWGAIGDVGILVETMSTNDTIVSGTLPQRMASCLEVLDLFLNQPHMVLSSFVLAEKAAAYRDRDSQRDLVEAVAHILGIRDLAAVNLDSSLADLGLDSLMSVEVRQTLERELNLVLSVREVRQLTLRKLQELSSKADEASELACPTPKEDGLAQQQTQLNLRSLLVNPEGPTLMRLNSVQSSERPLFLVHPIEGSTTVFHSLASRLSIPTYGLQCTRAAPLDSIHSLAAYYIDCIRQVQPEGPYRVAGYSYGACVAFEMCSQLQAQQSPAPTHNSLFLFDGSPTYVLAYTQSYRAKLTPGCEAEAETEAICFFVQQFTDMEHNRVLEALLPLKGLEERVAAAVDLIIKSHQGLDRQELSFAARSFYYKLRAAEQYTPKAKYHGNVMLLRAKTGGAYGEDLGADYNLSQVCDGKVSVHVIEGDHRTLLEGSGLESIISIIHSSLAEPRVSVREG
The target in test [6] is T4, Fatty acid synthase. Description: FAS thioesterase domain inhibitors, dose response, biochemical, kinetic fluorescence intensity (AID 624326).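 Also: rate of fluorescence rise from hydrolysis of a fluorogenic O-methyl fluorescein ester substrate.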 Type of test: functional.
Another test deals with Integrin alpha-4 (Homo sapiens, UniProt P13612). Description: VLA-4 integrin allosteric ligands, SAR follow-up, cell-based, LIBS antibody binding, flow cytometry (AID 488791). Type of test: functional. For orientation: Flow cytometry measures light scatter and fluorescence of single cells or particles in a stream.
Sequence of Integrin alpha-4 (P13612 whole entry): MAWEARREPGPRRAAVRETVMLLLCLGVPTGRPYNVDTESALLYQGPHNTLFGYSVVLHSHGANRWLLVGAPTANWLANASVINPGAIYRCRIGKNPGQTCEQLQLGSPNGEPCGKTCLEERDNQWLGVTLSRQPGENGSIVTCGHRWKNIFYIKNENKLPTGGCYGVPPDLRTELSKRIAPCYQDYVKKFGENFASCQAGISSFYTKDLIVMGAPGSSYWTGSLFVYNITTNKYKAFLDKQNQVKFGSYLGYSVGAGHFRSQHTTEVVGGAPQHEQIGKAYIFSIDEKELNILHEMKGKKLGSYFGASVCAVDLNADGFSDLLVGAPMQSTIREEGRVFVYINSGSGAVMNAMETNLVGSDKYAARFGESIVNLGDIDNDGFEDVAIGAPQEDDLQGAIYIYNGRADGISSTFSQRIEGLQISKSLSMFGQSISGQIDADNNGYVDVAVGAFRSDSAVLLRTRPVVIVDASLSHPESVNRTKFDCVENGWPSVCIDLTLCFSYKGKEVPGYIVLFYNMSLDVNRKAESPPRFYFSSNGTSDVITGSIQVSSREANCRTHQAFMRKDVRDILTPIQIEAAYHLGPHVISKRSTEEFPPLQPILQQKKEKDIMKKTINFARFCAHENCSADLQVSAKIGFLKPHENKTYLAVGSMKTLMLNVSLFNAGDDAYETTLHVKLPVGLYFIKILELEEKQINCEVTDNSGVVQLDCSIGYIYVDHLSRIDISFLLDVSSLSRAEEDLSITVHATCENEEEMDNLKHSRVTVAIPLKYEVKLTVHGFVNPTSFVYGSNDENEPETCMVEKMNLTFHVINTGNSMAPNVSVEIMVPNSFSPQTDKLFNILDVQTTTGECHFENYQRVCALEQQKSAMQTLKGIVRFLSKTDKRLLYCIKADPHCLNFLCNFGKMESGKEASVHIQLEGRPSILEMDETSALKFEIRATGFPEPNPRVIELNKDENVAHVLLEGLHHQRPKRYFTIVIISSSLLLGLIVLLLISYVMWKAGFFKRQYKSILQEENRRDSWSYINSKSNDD
The target of test [7] is ATP-dependent molecular chaperone HSP82 (Candida albicans (strain WO-1) (Yeast), UniProt C4YTQ8). As to the kind of experiment: loss of DOC-induced GRE-beta-galactosidase reporter signal, dose response, Hsp90 inhibitor project, S. cerevisiae, luminescence (AID 2400).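 Also: beta-galactosidase luminescence from glucocorticoid response element reporter as proxy for Hsp90 function; inhibitor potency where signal loss means Hsp90 inhibition.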 The test is classed as functional, cell-based.
Sequence of ATP-dependent molecular chaperone HSP82 (C4YTQ8 whole entry): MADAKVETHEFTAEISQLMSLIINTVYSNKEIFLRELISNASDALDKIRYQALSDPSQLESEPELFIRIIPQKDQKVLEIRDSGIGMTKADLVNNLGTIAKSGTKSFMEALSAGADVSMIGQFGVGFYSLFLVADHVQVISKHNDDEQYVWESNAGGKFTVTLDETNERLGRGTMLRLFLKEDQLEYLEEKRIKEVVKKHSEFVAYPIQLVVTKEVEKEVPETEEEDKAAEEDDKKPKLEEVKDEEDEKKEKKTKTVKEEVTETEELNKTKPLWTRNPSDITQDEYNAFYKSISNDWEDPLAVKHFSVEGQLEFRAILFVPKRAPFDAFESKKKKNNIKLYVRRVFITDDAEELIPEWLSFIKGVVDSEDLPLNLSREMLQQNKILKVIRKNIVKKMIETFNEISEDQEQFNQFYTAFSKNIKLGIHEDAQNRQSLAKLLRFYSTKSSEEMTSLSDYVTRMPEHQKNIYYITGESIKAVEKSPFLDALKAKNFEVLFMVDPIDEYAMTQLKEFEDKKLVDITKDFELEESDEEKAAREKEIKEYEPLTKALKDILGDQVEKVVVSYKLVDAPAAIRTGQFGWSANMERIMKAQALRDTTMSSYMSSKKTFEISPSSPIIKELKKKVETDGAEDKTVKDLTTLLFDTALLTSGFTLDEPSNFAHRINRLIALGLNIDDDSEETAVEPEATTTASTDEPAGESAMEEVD
For test [8], the target named is T5, Serine/threonine-protein phosphatase (Candida dubliniensis (strain CD36 / CBS 7987 / NCPF 3949 / NRRLY-17841) (Yeast), UniProt B9W6M3).
T5 sequence (B9W6M3 whole entry): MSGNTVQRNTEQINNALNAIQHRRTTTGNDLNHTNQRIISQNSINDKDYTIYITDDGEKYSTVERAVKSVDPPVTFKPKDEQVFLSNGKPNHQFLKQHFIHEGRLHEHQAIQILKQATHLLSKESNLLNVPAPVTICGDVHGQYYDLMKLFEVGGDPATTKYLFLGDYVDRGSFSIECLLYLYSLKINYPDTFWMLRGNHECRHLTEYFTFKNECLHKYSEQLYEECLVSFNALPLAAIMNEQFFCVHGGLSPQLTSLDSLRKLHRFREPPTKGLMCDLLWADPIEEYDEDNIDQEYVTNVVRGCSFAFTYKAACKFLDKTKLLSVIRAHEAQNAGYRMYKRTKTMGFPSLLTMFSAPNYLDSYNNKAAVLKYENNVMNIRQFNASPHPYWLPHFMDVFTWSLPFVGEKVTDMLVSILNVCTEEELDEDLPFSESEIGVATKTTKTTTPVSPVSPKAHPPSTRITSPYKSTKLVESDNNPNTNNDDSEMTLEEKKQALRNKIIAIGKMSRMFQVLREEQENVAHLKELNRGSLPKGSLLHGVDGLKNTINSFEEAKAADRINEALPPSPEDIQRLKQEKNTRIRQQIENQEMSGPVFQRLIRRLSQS
As to the kind of experiment: calcineurin pathway inhibitors in yeast reporter, dose response, S. cerevisiae, CDRE-lacZ, luminescence, secondary (AID 2388).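 Also: yeast reporter cells carrying a calcineurin-responsive lacZ construct stimulated with calcium chloride; luminescent beta-galactosidase reporter signal in whole cells rather than isolated phosphatase activity; potency for inhibition where a drop in reporter signal means calcineurin blockade.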 The test is classed as functional, cell-based.

Calls of active or inactive are those of the source.

What is called IC50 is the point on the concentration scale where inhibition reaches its midpoint. Consider `O=C(O)c1ccc(NC2=C/C(=N/S(=O)(=O)c3ccccc3)c3ccccc3C2=O)cc1`, for which, in test [1], the IC50 was > 0.157 µM (active).
By EC50 is commonly meant the concentration that produces a half-maximal response. On to `Nc1ccc2c(c1)C(=O)C(=O)c1ccccc1-2`, for which the results for the EC50 in [2] and in test [3] were > 120 µM (not active) and 9.09 µM (active), respectively.
With `COc1cc(-c2ccc(Nc3ccccc3C(=O)O)c(OC)c2)ccc1Nc1ccccc1C(=O)O`, the half-inhibitory concentration (IC50) in test [4] was 2.87 µM (not active); on Protein Tat it was 12.7 µM (inconclusive); at Fatty acid synthase [5], 7.61 µM (active); on Fatty acid synthase [6] it was 6.68 µM (active).
Regarding `COC(=O)[C@@H]1[C@@H](C(=O)OC)C2(c3ccccc3-c3ccccc32)N(c2ccc(Cl)cc2)N1C#N`, the EC50 at Integrin alpha-4 is > 49.2 µM (inactive).
Regarding `CCCC(=O)NC(c1ccccc1OC)c1ccc2cccnc2c1O` (stereo not given), the results for the EC50 in [7] and in test [8] were 25.9 µM (active) and > 180 µM (inactive), respectively.
